From US8653138B2, “Calcium salts of compounds as anti-inflammatory, immunomodulatory and anti-proliferatory agents” (4SC MG, priority 2010, dated 2014)

Molecular target: T1, recombinant human DHODH (Homo sapiens, UniProt Q02127)
T1 construct: provided by Prof; M. Löffler, Marburg, Germany (gift, not a commercial vendor)
Test: Inhibition assay of DHODH activity, human enzyme
Assay type: biochemical
Details: class symbol (head prints μM, key in nM)
Procedure: The standard assay mixture contained 50 μM decyclo ubichinone, 100 μM dihydroorotate, 60 μM 2,6-dichloroindophenol, as well as 20 mU DHODH. The volume activity of the recombinant enzyme used was 30 U/ml. Measurements were conducted in 50 mM TrisHCl (150 mM KCl, 0.1% Triton X-100, pH 8.0) at 30° C. in a final volume of 1 ml. The components were mixed, and the reaction was started by adding dihydroorotate. The course of reaction was followed by spectrophotometrically measuring the decrease in absorption at 600 nm for 2 min.
Inhibitory studies were conducted in a standard assay with additional variable amounts of inhibitor.
These investigations were carried out with recombinant human as well as with recombinant murine DHODH provided by Prof. M. Löffler, Marburg, Germany [M. Löffler, Chem. Biol. Interact.

T1 sequence (Q02127 whole entry): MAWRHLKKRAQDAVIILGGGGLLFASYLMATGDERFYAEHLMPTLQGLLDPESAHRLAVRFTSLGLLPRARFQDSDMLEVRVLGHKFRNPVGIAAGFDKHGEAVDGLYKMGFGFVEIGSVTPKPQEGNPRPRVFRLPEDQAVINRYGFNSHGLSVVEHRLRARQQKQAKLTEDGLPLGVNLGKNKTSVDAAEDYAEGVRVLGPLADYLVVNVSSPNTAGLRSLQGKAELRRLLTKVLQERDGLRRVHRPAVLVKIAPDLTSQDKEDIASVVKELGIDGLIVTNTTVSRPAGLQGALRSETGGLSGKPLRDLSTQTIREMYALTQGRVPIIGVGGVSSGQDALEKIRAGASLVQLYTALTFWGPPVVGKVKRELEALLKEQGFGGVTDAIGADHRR

| SMILES | IC50 [µM] |
| --- | --- |
| CCOc1ccccc1-c1ccc(NC(=O)C2=C(C(=O)O)CCC2)c(F)c1 [Compound 17, 2-((2′-ethoxy-3-fluoro-[1,1′-biphenyl]-4-yl)carbamoyl)cyclopent-1-enecarboxylic acid] | < 0.8 |
| COc1ccccc1-c1ccc(NC(=O)C2=C(C(=O)O)CCC2)c([N+](=O)[O-])c1 [Compound 32, 2-((2′-methoxy-3-nitro-[1,1′-biphenyl]-4-yl)carbamoyl)cyclopent-1-enecarboxylic acid] | < 0.8 |
| Cc1cc(-c2cc(F)c(NC(=O)C3=C(C(=O)O)CCC3)c(F)c2)ccc1F [Compound 30, 2-((3,4′,5-trifluoro-3′-methyl-[1,1′-biphenyl]-4-yl)carbamoyl)cyclopent-1-enecarboxylic acid] | < 0.8 |
| O=C(O)C1=C(C(=O)Nc2ccc(OCc3ccccc3C(F)(F)F)c(Cl)c2)CCC1 [Compound 68] | < 0.8 |
| CCOc1cccc(-c2ccc(NC(=O)C3=C(C(=O)O)CCC3)c(F)c2)c1 [Compound 46, 2-((3′-ethoxy-3-fluoro-[1,1′-biphenyl]-4-yl)carbamoyl)cyclopent-1-enecarboxylic acid] | < 0.8 |
| COc1ccccc1-c1ccc(OC(=O)C2=C(C(=O)O)CCC2)c(F)c1 [Compound 76] | < 0.8 |
| O=C(O)C1=C(C(=O)Nc2ccc(-c3cc4ccccc4s3)cc2)CCC1 [Compound 44, 2-((4-(benzo[b]thiophen-2-yl)phenyl)carbamoyl)cyclopent-1-enecarboxylic acid] | < 0.8 |
| COc1cc(-c2ccccc2F)ccc1NC(=O)C1=C(C(=O)O)CCC1 [Compound 36, 2-((2′-fluoro-3-methoxy-[1,1′-biphenyl]-4-yl)carbamoyl)cyclopent-1-enecarboxylic acid] | < 0.8 |
| COc1ccccc1-c1c(F)c(F)c(NC(=O)C2=C(C(=O)O)CCC2)c(F)c1F [Compound 56, 2-((2,3,5,6-tetrafluoro-2′-methoxy-[1,1′-biphenyl]-4-yl)carbamoyl)cyclopent-1-enecarboxylic acid] | < 0.8 |
| COc1ccccc1-c1ccc(NC(=O)C2=C(C(=O)O)CCC2)cc1 [Compound 15, 2-((2′-methoxy-[1,1′-biphenyl]-4-yl)carbamoyl)cyclopent-1-enecarboxylic acid] | < 0.8 |
| O=C(O)C1=C(C(=O)Nc2ccc(-c3ccccc3Cl)cc2)CCC1 [Compound 14, 2-((2′-chloro-[1,1′-biphenyl]-4-yl)carbamoyl)cyclopent-1-enecarboxylic acid] | < 0.8 |
| COc1cc(-c2ccccc2Cl)ccc1NC(=O)C1=C(C(=O)O)CCC1 [Compound 34, 2-((2′-chloro-3-methoxy-[1,1′-biphenyl]-4-yl)carbamoyl)cyclopent-1-enecarboxylic acid] | < 0.8 |
| CCOc1cccc(-c2ccc(NC(=O)C3=C(C(=O)O)CCC3)c(OC)c2)c1 [Compound 38, 2-((3′-ethoxy-3-methoxy-[1,1′-biphenyl]-4-yl)carbamoyl)cyclopent-1-enecarboxylic acid] | < 0.8 |
| O=C(O)C1=C(C(=O)Nc2ccc(OCc3ccccc3)c(Cl)c2)CCC1 [Compound 72] | < 0.8 |
| O=C(O)C1=C(C(=O)Nc2ccc(OCc3ccccc3F)c(Cl)c2)CCC1 [Compound 74, 2-((3-chloro-4-((2-fluorobenzyl)oxy)phenyl)carbamoyl)cyclopent-1-enecarboxylic acid] | < 0.8 |
| O=C(O)C1=C(C(=O)Nc2ccc(-c3ccccc3Cl)cc2)CSC1 [Compound 41, 4-((2′-chloro-[1,1′-biphenyl]-4-yl)carbamoyl)-2,5-dihydrothiophene-3-carboxylic acid] | < 0.8 |
| COc1ccccc1-c1ccc(NC(=O)C2=C(C(=O)O)CCC2)c(Cl)c1 [Compound 53, 2-((3-chloro-2′-methoxy-[1,1′-biphenyl]-4-yl)carbamoyl)cyclopent-1-enecarboxylic acid] | < 0.8 |
| COc1cc(-c2cccc(OC(F)(F)F)c2)ccc1NC(=O)C1=C(C(=O)O)CCC1 [Compound 35, 2-((3-methoxy-3′-(trifluoromethoxy)-[1,1′-biphenyl]-4-yl)carbamoyl)cyclopent-1-enecarboxylic acid] | < 0.8 |
| O=C(O)C1=C(C(=O)Nc2ccc(-c3ccccc3F)cc2)CCC1 [Compound 13, 2-((2′-fluoro-[1,1′-biphenyl]-4-yl)carbamoyl)cyclopent-1-enecarboxylic acid] | < 0.8 |
| COc1ccc(-c2ccc(NC(=O)C3=C(C(=O)O)CCC3)cc2Cl)cn1 [Compound 22, 2-((3-chloro-4-(6-methoxypyridin-3-yl)phenyl)carbamoyl)cyclopent-1-enecarboxylic acid] | < 0.8 |
| COc1ccc(-c2cc(F)c(NC(=O)C3=C(C(=O)O)CCC3)c(F)c2)c(OC)c1 [Compound 67, 2-((3,5-difluoro-2′,4′-dimethoxy-[1,1′-biphenyl]-4-yl)carbamoyl)cyclopent-1-enecarboxylic acid] | < 0.8 |

| SMILES | IC50 [µM] |
| --- | --- |
| O=C(O)C1=C(C(=O)Nc2ccc(OCc3c(F)cccc3F)cc2)CCC1 [Compound 16, 2-((4-((2,6-difluorobenzyl)oxy)phenyl)carbamoyl)cyclopent-1-enecarboxylic acid] | < 0.8 |
| O=C(O)C1=C(C(=O)Nc2ccc(Oc3ccccc3)cc2)CCC1 [Compound 50, 2-((4-phenoxyphenyl)carbamoyl)cyclopent-1-enecarboxylic acid] | < 0.8 |
| COc1cccc(-c2ccc(NC(=O)C3=C(C(=O)O)CCC3)c(OC)c2)c1 [Compound 39, 2-((3,3′-dimethoxy-[1,1′-biphenyl]-4-yl)carbamoyl)cyclopent-1-enecarboxylic acid] | < 0.8 |
| COc1ccccc1-c1ccc(NC(=O)C2=C(C(=O)O)CCC2)c(C)c1 [Compound 57, 2-((2′-methoxy-3-methyl-[1,1′-biphenyl]-4-yl)carbamoyl)cyclopent-1-enecarboxylic acid] | < 0.8 |
| COc1ccc(-c2ccc(NC(=O)C3=C(C(=O)O)CCC3)cc2Cl)cc1 [Compound 19, 2-((2-chloro-4′-methoxy-[1,1′-biphenyl]-4-yl)carbamoyl)cyclopent-1-enecarboxylic acid] | < 0.8 |
| N#Cc1cccc(-c2ccc(NC(=O)C3=C(C(=O)O)CCC3)cc2Cl)c1 [Compound 18, 2-((2-chloro-3′-cyano-[1,1′-biphenyl]-4-yl)carbamoyl)cyclopent-1-enecarboxylic acid] | < 0.8 |
| COc1ccccc1-c1ccc(NC(=O)C2=C(C(=O)O)CCC2)cc1Cl [Compound 54, 2-((2-chloro-2′-methoxy-[1,1′-biphenyl]-4-yl)carbamoyl)cyclopent-1-enecarboxylic acid] | < 0.8 |
| O=C(O)C1=C(C(=O)Nc2cc(Br)c(OCc3cc(F)ccc3F)c(Br)c2)CCC1 [Compound 24] | < 0.8 |
| O=C(O)C1=C(C(=O)Nc2c(F)cc(-c3cccc(OC(F)(F)F)c3)cc2F)CCC1 [Compound 64, 2-((3,5-difluoro-3′-(trifluoromethoxy)-[1,1′-biphenyl]-4-yl)carbamoyl)cyclopent-1-enecarboxylic acid] | < 0.8 |
| Cc1cccc(Sc2ccc(NC(=O)C3=C(C(=O)O)CCC3)cc2)c1 [Compound 42, 2-((4-(m-tolylthio)phenyl)carbamoyl)cyclopent-1-enecarboxylic acid] | < 0.8 |
| COc1ccc(-c2ccc(NC(=O)C3=C(C(=O)O)CCC3)cc2C)cc1 [Compound 23, 2-((4′-methoxy-2-methyl-[1,1′-biphenyl]-4-yl)carbamoyl)cyclopent-1-enecarboxylic acid] | < 0.8 |
| O=C(O)C1=C(C(=O)Nc2ccc(-c3cccc(F)c3)cc2F)CCC1 [Compound 27, 2-((3,3′-difluoro-[1,1′-biphenyl]-4-yl)carbamoyl)cyclopent-1-enecarboxylic acid] | < 0.8 |
| O=C(O)C1=C(C(=O)Nc2c(F)cc(-c3ccccc3Cl)cc2F)CCC1 [Compound 65, 2-((2′-chloro-3,5-difluoro-[1,1′-biphenyl]-4-yl)carbamoyl)cyclopent-1-enecarboxylic acid] | < 0.8 |
| O=C(O)C1=C(C(=O)Nc2ccc(-c3cc4ccccc4s3)cc2F)CCC1 [Compound 45, 2-((4-(benzo[b]thiophen-2-yl)-2-fluorophenyl)carbamoyl)cyclopent-1-enecarboxylic acid] | < 0.8 |
| O=C(O)C1=C(C(=O)Nc2c(F)cc(-c3ccccc3F)cc2F)CCC1 [Compound 66, 2-((2′,3,5-trifluoro-[1,1′-biphenyl]-4-yl)carbamoyl)cyclopent-1-enecarboxylic acid] | < 0.8 |
| O=C(O)C1=C(C(=O)Nc2cc(Br)c(OCc3ccccc3)c(Br)c2)CSC1 [Compound 29, 4-((4-(benzyloxy)-3,5-dibromophenyl)carbamoyl)-2,5-dihydrothiophene-3-carboxylic acid] | < 0.8 |
| COc1ccccc1-c1cc(Cl)c(NC(=O)C2=C(C(=O)O)CCC2)c(Cl)c1 [Compound 58, 2-((3,5-dichloro-2′-methoxy-[1,1′-biphenyl]-4-yl)carbamoyl)cyclopent-1-enecarboxylic acid] | < 0.8 |
| O=C(O)C1=C(C(=O)Nc2ccc(-c3cccc(OC(F)(F)F)c3)cc2)CCC1 [Compound 43, 2-((3′-(trifluoromethoxy)-[1,1′-biphenyl]-4-yl)carbamoyl)cyclopent-1-enecarboxylic acid] | < 0.8 |
| CCOc1ccccc1-c1cc(F)c(NC(=O)C2=C(C(=O)O)CCC2)c(F)c1 [Compound 62, 2-((2′-ethoxy-3,5-difluoro-[1,1′-biphenyl]-4-yl)carbamoyl)cyclopent-1-enecarboxylic acid] | < 0.8 |
| CCOc1cccc(-c2cc(F)c(NC(=O)C3=C(C(=O)O)CCC3)c(F)c2)c1 [Compound 63, 2-((3′-ethoxy-3,5-difluoro-[1,1′-biphenyl]-4-yl)carbamoyl)cyclopent-1-enecarboxylic acid] | < 0.8 |
